Measurements taken from paper PMC11458808, “Identification and development of a series of disubstituted piperazines for the treatment of Chagas disease” (European Journal of Medicinal Chemistry, 2022).
≈ marks a conversion by molar mass, not a printed value.

What was measured:
[1] = tested on: T. cruzi infected Vero cells; experiment: Washout assay; format: cell-based, Trypanosoma cruzi; settings: for Relapse Day: 8 days treatment
Method: (§1) (Supplementary Information, Fig. S1). We tested 1 in a T. cruzi washout assay to assess the compound's ability to clear all parasites in vitro. In this experiment, T. cruzi, cultured in Vero cells were treated with compound 1 at 20- to 30-fold the EC50 for 8 days (with compound being re-supplemented after 4 days). After treatment, the culture medium containing compound 1 was removed, the cell monolayer was washed extensively and then incubated with fresh medium containing no compound 1. […] The same result was obtained in three independent experiments (Supplementary Information, Table S1). […] We therefore ran a 4-day PK study on 1, dosing at 50 mg/kg twice daily. As the intrinsic clearance was very high, compound 1 was co-dosed with 1-ABT (1-aminobenzotriazole) to inhibit CYP-mediated degradation and maximise exposure. […] As this was a novel series with an unknown mechanism of action, the PKPD drivers were unknown, so this coverage was considered suitable for progression to an animal model of Chagas disease. Compound 1 was dosed twice daily at 50 mg/kg for 5 days in an acute Chagas disease mouse efficacy study. This mouse model, developed by the Kelly laboratory, is able to distinguish between benznidazole (clinically effective) and posaconazole (clinically ineffective).
1.2 Washout assay: Vero cells were infected overnight at MOI 5 with T. cruzi X10/7 A1 trypomastigotes in MEM media (Gibco) containing 10% FCS (Hyclone) followed by washing of the monolayer to remove any extracellular trypomastigotes. 24 h later, infected cells were trypsinised and plated in T25 flasks in presence of compounds at the indicated concentrations and incubated for 8 days in MEM media (Gibco) containing 1% FCS. Four days into the treatment the media was replaced with fresh compound-containing media. After the treatment period, monolayers were washed extensively. The cultures were then maintained, replacing media twice weekly, until trypomastigotes could be observed by light microscopy. Observations were carried out twice weekly for up to 60 days post washout.
Results for three independent washout experiments (experiment c is reported in the main manuscript). T. cruzi infected Vero cells were treated for 8 days at the indicated concentrations (compounds replenished after 4 days), followed by extensive washing to remove compounds and incubation until parasites were observed microscopically. ^a day after washout of compounds on which egressed parasites were detected first.

[2] = Aqueous (kinetic) solubility by CAD; format: physicochemical; settings: kinetic solubility measured by CAD
Method: 2.1 Aqueous solubility: This assay was conducted as previously described in [4].

[3] = tested on: intracellular T. cruzi; set-up: method as in PMID 25740547; settings: HTS in NIH-3T3 fibroblasts; cited from earlier work
[4] = Intrinsic clearance in mouse liver microsomes; format: in vitro ADME; settings: mouse liver microsomal intrinsic clearance
Method: 2.2 Intrinsic clearance: This assay was conducted as previously described in [5].

[5] = ChromLogD pH7.4 (chromatographic hydrophobicity index); format: physicochemical; settings: pH 7.4; CHIpH7.4 × 0.0857–2; read-out: ChromlogDpH7.4
[6] = tested on: T. cruzi; experiment: Acute Chagas disease mouse efficacy study (bioluminescence imaging); format: in vivo, Trypanosoma cruzi
Method: as §1, with “Compound 1 was dosed twice daily at 50 mg/kg for 5 days in an acute Chagas disease mouse efficacy study. This mouse model, developed by the Kelly laboratory, is able to distinguish between benznidazole (clinically effective) and posaconazole (clinically ineffective).” left out
Fig. 2 Results of acute T. cruzi infection efficacy study. […] 5 day dosing begins on day 14 (b) Quantification (Total Flux [p/s]) of combined ventral and dorsal bioluminescence for the mice shown in (c). […] (For interpretation of the references to colour in this figure legend, the reader is referred to the Web version of this article.) […]

[7] = Blood exposure in the acute efficacy study; format: in vivo, mouse; settings: days 1 and 5; 50 mg/kg b.i.d. with 1-ABT
Method: as §1, with “Compound 1 was dosed twice daily at 50 mg/kg for 5 days in an acute Chagas disease mouse efficacy study. This mouse model, developed by the Kelly laboratory, is able to distinguish between benznidazole (clinically effective) and posaconazole (clinically ineffective).” left out
Fig. 2 Results of acute T. cruzi infection efficacy study. […] 5 day dosing begins on day 14 (b) Quantification (Total Flux [p/s]) of combined ventral and dorsal bioluminescence for the mice shown in (c). […] (For interpretation of the references to colour in this figure legend, the reader is referred to the Web version of this article.)

[8] = tested on: intracellular T. cruzi X10/7 A1 amastigotes; experiment: Intracellular T. cruzi assay; format: cell-based, Trypanosoma cruzi; settings: for EC50: Trypanosoma cruzi, potency against intracellular T. cruzi amastigotes, at least three independent replicates, standard deviations ≤0.2, read-out: T. cruzi (pEC50) (converted)
Method: 1.1 Intracellular T. cruzi assay: Potency against intracellular T. cruzi X10/7 A1 amastigotes was determined as described previously with as sole modification that the compound treatment duration was increased from 72h to 96h.

[9] = target: T. cruzi CYP51 (Trypanosoma cruzi, UniProt Q7Z1V1); experiment: CYP51 assay; format: biochemical; settings: read-out: T.cruzi CYP51 (pIC50) (converted)
Sequence of T. cruzi CYP51 (Q7Z1V1 whole entry): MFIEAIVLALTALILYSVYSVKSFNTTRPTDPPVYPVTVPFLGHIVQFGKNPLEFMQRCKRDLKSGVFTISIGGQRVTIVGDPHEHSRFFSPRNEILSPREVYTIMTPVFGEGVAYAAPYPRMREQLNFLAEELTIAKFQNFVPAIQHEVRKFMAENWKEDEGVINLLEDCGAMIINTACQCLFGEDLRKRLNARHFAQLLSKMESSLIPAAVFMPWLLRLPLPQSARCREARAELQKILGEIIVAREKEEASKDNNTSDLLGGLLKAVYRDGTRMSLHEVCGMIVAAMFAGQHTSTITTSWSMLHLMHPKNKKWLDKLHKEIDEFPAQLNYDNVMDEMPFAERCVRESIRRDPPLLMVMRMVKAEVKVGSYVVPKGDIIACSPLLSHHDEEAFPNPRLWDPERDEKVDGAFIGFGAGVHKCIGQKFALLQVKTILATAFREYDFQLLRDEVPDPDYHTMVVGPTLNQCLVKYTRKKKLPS
Method: 1.4 CYP51 assay: Potency against T. cruzi CYP51 was determined as previously described in [3].

[10] = tested on: intracellular T. cruzi X10/7-E2Crimson; experiment: Rate-of-kill studies; format: cell-based, Trypanosoma cruzi; settings: compared with posaconazole (CYP51 inhibitor)
Method: 1.3 Rate-of-kill studies: Experiments with intracellular T. cruzi X10/7-E2Crimson were carried out as previously described in [2].

## CC[C@@H]([C@H](C)O)n1ncn(-c2ccc(N3CCN(c4ccc(OC[C@@H]5CO[C@@](Cn6cncn6)(c6ccc(F)cc6F)C5)cc4)CC3)cc2)c1=O [posaconazole]
[1]; experiment a, 0.2 µM, 50-fold EC50
  Relapse Day: 7 days
[1]; experiment b, 0.2 µM, 50-fold EC50
  Relapse Day: 11 days
[1]; experiment c, 0.1 μM, 25-fold EC50
  Relapse Day: 7 days

## Cc1ccc(S(=O)(=O)Nc2ccc(CN3CCN(C(=O)c4cccc(C#N)c4)CC3)cc2)cc1 [TCMDC-143497]
[2]
  solubility: 85 µM (≈ 40.3 µg/mL)
[3]
  T. cruzi pEC50 (reported potency): 6.4
[4]
  Mouse CLi: 30 mL/min/g
[5]
  chromatographic logD: 4.8

## O=C(Cn1ccnc1[N+](=O)[O-])NCc1ccccc1 [benznidazole]
[1]; experiment a, replicate 1, 36 µM, 12.5-fold EC50
  Relapse Day: 18 days
[1]; experiment a, replicate 2, 36 µM, 12.5-fold EC50
  Relapse Day: 14 days
[1]; experiment b, 36 µM, 12.5-fold EC50
  Relapse Day: 14 days
[1]; experiment c, 36 μM, 12.5-fold EC50
  Relapse Day: 18 days
[1]; experiment c, 144 μM, 50-fold EC50, observed up to 60 days
  Relapse Day: >60 days

## Cc1ccc(S(=O)(=O)Nc2ccc(CN3CCN(C(=O)c4cccc(Cl)c4)CC3)cc2)cc1 [Compound 1, N-(4-((4-(3-chlorobenzoyl)piperazin-1-yl)methyl)phenyl)-4-methylbenzenesulfonamide]
[2]
  solubility: 38 µM (≈ 18.4 µg/mL)
[6]; 50 mg/kg b.i.d. for 5 days with 1-ABT, cyclophosphamide 200 mg/kg i.p. days 28, 32, 36
  Outcome after immunosuppression: relapse is observed post immunosuppression
[6]; 50 mg/kg b.i.d. for 5 days, 1-ABT 50 mg/kg pre-treatment, compared to vehicle
  Parasite burden: reduction in parasite burden compared to vehicle
[7]
  Total blood exposure relative to in vitro EC99: exceeded the in vitro EC99 for the duration of dosing
[8]
  EC50: 0.158 µM
[9]
  IC50: 20 µM
[1]; 20- to 30-fold the EC50 for 8 days, re-supplemented after 4 days
  Time after washout until parasite relapse was observed: ~2 weeks
[1]; experiment a, 5 µM, 32-fold EC50
  Relapse Day: 11 days
[1]; experiment b, 5.5 µM, 35-fold EC50
  Relapse Day: 14 days
[1]; experiment c, 3.9 μM, 25-fold EC50, day after washout on which egressed parasites first detected
  Relapse Day: 11 days
[10]
  Rate-of-kill profile: faster kill profile
[4]
  Mouse CLi: >50 mL/min/g
[5]
  chromatographic logD: 5.8

## COc1ccc(S(=O)(=O)Nc2cnc(CN3CCN(C(=O)c4cccc(Cl)c4)CC3)cn2)cc1 [Compound 45, N-(5-((4-(3-chlorobenzoyl)piperazin-1-yl)methyl)pyrazin-2-yl)-4-methoxybenzenesulfonamide]
[2]
  solubility: ≥ 414 µM
[8]
  EC50: > 50.1 µM
[8]; purified compound
  Activity in the intracellular T. cruzi assay (in words): lacked any activity
[4]
  Mouse CLi: 1.3 mL/min/g
[5]
  chromatographic logD: 2.8
